From US10023565B2, “N,N′ substituted piperidinamine compounds, and preparation method and usage thereof” (Institute of Pharmacology and Toxicology Academy of …, priority 2013, dated 2018)
Where “and” joins values, the source holds several entries; their conditions need not be identical. Identical values can stand only once. Like-named read-outs stand apart in the source and are kept apart here.

Test: Mice pharmacokinetic evaluation (LC-MS/MS of plasma)
Type: in vivo, ICR mice
Settings: for Cmax: read-out: Cmax; for Plasma concentration of active compound: listed as Mol
Protocol: Mice pharmacokinetic evaluation of the compound of Example 36 according to the method described below
ICR mice, SPS grade, male, weighed […], license number SCXK (Beijing) 2012-0001, purchased from Beijing Vital River Laboratory Animal Technology Co. Ltd.
Chromatographic conditions: Analytical column: Capcell Pak MG, 5 μm particle size, 50×2.0 mm I.D. (Shiseido Co.), connected with C18 guard column, 4×3.0 mm I.D. (PhenomenexCo., USA), column temperature 25° C., mobile phase: acetonitrile −2 mM ammonium acetate (65:35, v/v), flow rate 0.3 ml/min, internal standard: loratadine.
MS conditions: Electrospray ionization source (Turbo Ionspray source), positive ion mode detection; spray voltage 4500 V; source temperature 400° C.; nebulizer gas (NEB) 8; curtain gas (CUR) 10; collision gas (CAD) 4; scanning mode: multiple reaction monitoring (MRM), ion reactions for quantitative analysis: m/z 354.4→m/z 154.1 (Mol, CE 43 V) and m/z 383→m/z 337 (internal standard loratadine, CE 32 V), scanning time 150 msec.
To 50 μl of plasma, were added 10 μl of internal standard solution (125 ng/ml aqueous solution of loratadine), and 500 μl of n-hexane-dichloromethane-isopropanol (100:50:5, v/v/v); they were uniformly mixed, followed by vortexing for 3 min, and centrifuging for 10 min (3000 rpm); the supernatant was taken and blow dried with air streamat 40° C.; the residue was dissolved with 150 μl […], and subjected to LC-MS/MS analysis.
30 ICR male mice were randomly divided into […], five mices each group, including Mol 10 mg/kg oral group and 1.0 mg/kg tail intravenous injection group. For oral group, before administration, the animals were fasted for 12 h, with free access to water; 0.08, 0.25, 0.5, 1, 2, 4, 6, 8, 12 and 24 h after intragastrical administration, 0.1 ml of orbital venous sinus blood was taken, placed in anticoagulation tube containing heparin sodium, and subjected to 3000 g centrifugation for 15 min; and then, the plasma was taken and stored in a −20° C. refrigerator. […]
Pharmacokinetic parameters were calculated using non-compartment model of Winnonlin® software (Version 5.2.1, USA). Cmax is the measured maximum plasma concentration, Tmax is time to peak plasma concentration after oral administration, t1/2 is drug terminal elimination halflife, MRT is average residence time of drug in vivo, the area AUC0-t under plasma concentration—time curve is calculated by trapezoidal method.
Bioavailability is calculated as follows: […]
AUC: Area (h*ng/ml) under the curve; D: dose (mg/kg)

[1] = male, ICR, mouse, plasma, po, 10 mg/kg, Po 10 mg/kg, Mean ± SD, n = 3
[2] = male, ICR, mouse, plasma, po, 10 mg/kg, Po 10 mg/kg, individual mice 1-3
[3] = male, ICR, mouse, plasma, po, 10 mg/kg, oral 10 mg/kg, Mean, read-out: Plasma concentration of active compound
[4] = male, ICR, mouse, plasma, po, 10 mg/kg, oral 10 mg/kg, individual mice 1-3, read-out: Plasma concentration of active compound

CSc1nccc(N2CCC(N(C)Cc3ccc(C#N)cc3)CC2)n1 [Example 36, N-methyl-N-(4-cyanobenzyl)-N-[1-(2-methylthiopyrimidin-4-yl)piperidin-4-yl]amine]
concentration at 0.17 h (male, ICR, mouse, plasma, iv, 1 mg/kg, intravenous 1.0 mg/kg, Mean, read-out: Plasma concentration of active compound): 62.8 ng/mL
concentration at 0.17 h (male, ICR, mouse, plasma, iv, 1 mg/kg, intravenous 1.0 mg/kg, individual mice 4-6, read-out: Plasma concentration of active compound): 79.6 ng/mL
concentration at 0.5 h (male, ICR, mouse, plasma, iv, 1 mg/kg, intravenous 1.0 mg/kg, 0.5 h, Mean, read-out: Plasma concentration of active compound): 31.5 ng/mL
concentration at 1 h (male, ICR, mouse, plasma, iv, 1 mg/kg, intravenous 1.0 mg/kg, 1.0 h, Mean, read-out: Plasma concentration of active compound): 7.02 ng/mL
concentration at 2 h (male, ICR, mouse, plasma, iv, 1 mg/kg, intravenous 1.0 mg/kg, 2.0 h, Mean, read-out: Plasma concentration of active compound): 1.77 ng/mL
concentration at 4 h (male, ICR, mouse, plasma, iv, 1 mg/kg, intravenous 1.0 mg/kg, 4.0 h, Mean, read-out: Plasma concentration of active compound): 2.26 ng/mL
concentration at 4 h (male, ICR, mouse, plasma, iv, 1 mg/kg, intravenous 1.0 mg/kg, 4.0 h, individual mice 4-6, read-out: Plasma concentration of active compound): 2.3 ng/mL
concentration at 6 h (male, ICR, mouse, plasma, iv, 1 mg/kg, intravenous 1.0 mg/kg, 6.0 h, Mean, read-out: Plasma concentration of active compound): 7.53 ng/mL
concentration at 6 h (male, ICR, mouse, plasma, iv, 1 mg/kg, intravenous 1.0 mg/kg, 6.0 h, individual mice 4-6, read-out: Plasma concentration of active compound): 7.53 ng/mL
concentration at 8 h (male, ICR, mouse, plasma, iv, 1 mg/kg, intravenous 1.0 mg/kg, 8.0 h, Mean, read-out: Plasma concentration of active compound): 0.84 ng/mL
concentration at 8 h (male, ICR, mouse, plasma, iv, 1 mg/kg, intravenous 1.0 mg/kg, 8.0 h, individual mice 4-6, read-out: Plasma concentration of active compound): 0.7 ng/mL
bioavailability (male, ICR, mouse, plasma, oral, 10 mg/kg, Po 10 mg/kg vs IV 1.0 mg/kg, Mean ± SD, n = 3, read-out: F (absolute bioavailability)): 55.5 ± 10.9%
AUC(0-inf) [1]: 280 ± 55.8 ng·h/mL
AUC(0-t) [1]: 275 ± 54.1 ng·h/mL
half-life [1]: 2.72 ± 2.47 h
Cmax [1]: 260 ± 63.2 ng/mL
MRT last (male, ICR, mouse, plasma, po, 10 mg/kg, Po 10 mg/kg, Mean ± SD, n = 3, read-out: MRT0-t): 1.58 ± 0.86 h
MRT inf (male, ICR, mouse, plasma, po, 10 mg/kg, Po 10 mg/kg, Mean ± SD, n = 3, read-out: MRT0-∞): 1.95 ± 1.42 h
Tmax (male, ICR, mouse, plasma, po, 10 mg/kg, Po 10 mg/kg, Mean ± SD, n = 3, read-out: Tmax): 0.44 ± 0.49 h
AUC(0-inf) [2]: 216 ng·h/mL
AUC(0-t) [2]: 214 ng·h/mL
Cmax [2]: 197 ng/mL
concentration at 0.08 h (male, ICR, mouse, plasma, po, 10 mg/kg, oral 10 mg/kg, 0.08 h, Mean, read-out: Plasma concentration of active compound): 141 ng/mL
concentration at 0.25 h (male, ICR, mouse, plasma, po, 10 mg/kg, oral 10 mg/kg, 0.25 h, Mean, read-out: Plasma concentration of active compound): 203 ng/mL
concentration at 0.5 h (male, ICR, mouse, plasma, po, 10 mg/kg, oral 10 mg/kg, 0.50 h, Mean, read-out: Plasma concentration of active compound): 97.5 ng/mL
concentration at 1 h (male, ICR, mouse, plasma, po, 10 mg/kg, oral 10 mg/kg, 1.0 h, Mean, read-out: Plasma concentration of active compound): 147 ng/mL
concentration at 2 h (male, ICR, mouse, plasma, po, 10 mg/kg, oral 10 mg/kg, 2.0 h, Mean, read-out: Plasma concentration of active compound): 23.5 ng/mL
concentration at 4 h (male, ICR, mouse, plasma, po, 10 mg/kg, oral 10 mg/kg, 4.0 h, Mean, read-out: Plasma concentration of active compound): 7.75 ng/mL
concentration at 6 h (male, ICR, mouse, plasma, po, 10 mg/kg, oral 10 mg/kg, 6.0 h, Mean, read-out: Plasma concentration of active compound): 7.36 ng/mL
concentration at 8 h (male, ICR, mouse, plasma, po, 10 mg/kg, oral 10 mg/kg, 8.0 h, Mean, read-out: Plasma concentration of active compound): 2.71 ng/mL
concentration at 12 h [3]: 0.5 ng/mL
concentration at 12 h [4]: 0.5 ng/mL
concentration at 24 h [3]: 1.32 ng/mL
concentration at 24 h [4]: 1.32 ng/mL
Plasma concentration of active compound (oral 10 mg/kg, 0.08 h, individual mice 1-3, 10 mg/kg): 196.99 ng/mL and 152.22 ng/mL and 72.70 ng/mL
Plasma concentration of active compound (oral 10 mg/kg, 0.25 h, individual mice 1-3, 10 mg/kg): 126.87 ng/mL and 158.18 ng/mL and 323.37 ng/mL
Plasma concentration of active compound (oral 10 mg/kg, 0.50 h, individual mice 1-3, 10 mg/kg): 41.24 ng/mL and 119.50 ng/mL and 131.86 ng/mL
Plasma concentration of active compound (oral 10 mg/kg, 1.0 h, individual mice 1-3, 10 mg/kg): 107.54 ng/mL and 260.48 ng/mL and 71.98 ng/mL
Plasma concentration of active compound (oral 10 mg/kg, 2.0 h, individual mice 1-3, 10 mg/kg): 33.99 ng/mL and 12.86 ng/mL and 23.69 ng/mL
Plasma concentration of active compound (oral 10 mg/kg, 4.0 h, individual mice 1-3, 10 mg/kg): 7.47 ng/mL and 1.17 ng/mL and 14.60 ng/mL
Plasma concentration of active compound (oral 10 mg/kg, 6.0 h, individual mice 1-3, 10 mg/kg): 1.28 ng/mL and 13.43 ng/mL
Plasma concentration of active compound (oral 10 mg/kg, 8.0 h, individual mice 1-3, 10 mg/kg): 0.54 ng/mL and 4.88 ng/mL
